From PubChem BioAssay (NCI)
“And” between values parts separate entries of the source, which are not always exact repeats. Identical values can stand only once.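 Five compound concentrations were applied to cells in 96-well plates for 48 hours; endpoints were derived by simple linear interpolation of the resulting dose-response curve. At the GI50, growth is halved. The concentration for full growth arrest is given as TGI.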

Columns and labels:
Assay in all cases: NCI-60 cell line screen, 48 h
UO-31 renal = system: UO-31 renal
NCI-H522 lung = system: NCI-H522 lung
COLO 205 colon = system: COLO 205 colon
SK-OV-3 ovarian = system: SK-OV-3 ovarian
IGROV1 ovarian = system: IGROV1 ovarian
HOP-92 NSCLC = system: HOP-92 NSCLC
SK-MEL-2 melanoma = system: SK-MEL-2 melanoma
HL-60(TB) leukemia = system: HL-60(TB) leukemia
T-47D breast = system: T-47D breast
MCF7 breast = system: MCF7 breast

Compound	TGI (UO-31 renal)	TGI (NCI-H522 lung)	TGI (COLO 205 colon)	TGI (SK-OV-3 ovarian)	TGI (IGROV1 ovarian)	TGI (HOP-92 NSCLC)	TGI (SK-MEL-2 melanoma)	TGI (HL-60(TB) leukemia)	GI50 (COLO 205 colon)	GI50 (SK-OV-3 ovarian)	TGI (T-47D breast)	GI50 (IGROV1 ovarian)	GI50 (SK-MEL-2 melanoma)	GI50 (UO-31 renal)	GI50 (NCI-H522 lung)	GI50 (MCF7 breast)	TGI (MCF7 breast)	GI50 (HL-60(TB) leukemia)	GI50 (HOP-92 NSCLC)
OC1(C23CC4CC(CC(C4)C2)C3)CSCC1(O)C12CC3CC(CC(C3)C1)C2 (stereo not drawn)	> 100 µM	> 100 µM	> 100 µM	> 100 µM	> 100 µM	> 100 µM	> 100 µM	> 10 µM	–	–	–	–	–	–	–	–	–	–	–
Cc1ccc2c(c1)-c1c3c(nn1-c1ccccc1)-c1ccccc1SC3O2 (stereo not drawn)	> 100 µM	> 100 µM	> 100 µM	> 100 µM	> 100 µM	> 100 µM	> 100 µM	> 100 µM	–	–	–	–	–	–	–	–	–	–	–
CC(CN(C)C)/C(=N\Nc1ccccc1)c1ccccc1 (stereo not drawn)	3.28 µM	25.1 µM	2.55 µM	84.1 µM	> 100 µM	–	–	8.34 µM	–	–	–	–	–	–	–	–	–	–	–
C[C@H](OCc1ccccc1)C(=O)N1CCS(=O)(=O)N2CCC[C@@H]2C1=O	> 100 µM	> 100 µM	> 100 µM	> 100 µM	> 100 µM	> 100 µM	–	> 100 µM	–	–	–	–	–	–	–	–	–	–	–
CC[C@@]1(O)C(=O)OCc2c1cc1n(c2=O)Cc2cc3cc4c(cc3nc2-1)OCO4	0.0251 µM and < 0.015 µM	0.113 µM	0.71 µM	–	0.187 µM	0.166 µM and 0.051 µM	0.173 µM and 0.997 µM	–	< 34.1 nM	< 0.0324 µM	0.427 µM	< 34.1 nM	0.204 µM	–	–	–	–	–	–
CC(=O)Nc1ccc(S(=O)(=O)N/N=C/CN2C(=O)c3ccccc3C2=O)cc1	> 100 µM	> 100 µM	> 100 µM	–	> 100 µM	–	> 100 µM	> 100 µM	–	–	–	–	–	–	–	–	–	–	–
O=C1CCCCC1S(=O)(=O)c1ccccc1 (stereo not drawn)	> 100 µM	> 100 µM	> 100 µM	> 100 µM	> 100 µM	> 100 µM	> 100 µM	> 100 µM	–	–	–	–	–	–	–	–	–	–	–
CSc1nnc(CCC(=O)Nc2c(C)cccc2C)o1	> 100 µM	> 100 µM	> 100 µM	> 100 µM	> 100 µM	> 100 µM	> 100 µM	> 100 µM	–	–	–	–	–	–	–	–	–	–	–
NC(=O)CN(CC(N)=O)C(N)=O	> 100 µM	> 100 µM	> 100 µM	> 100 µM	> 100 µM	> 100 µM	> 100 µM	> 100 µM	–	–	–	–	–	–	–	–	–	–	–
NNC(=O)C1CCC(=O)N1S(=O)(=O)c1ccccc1 (stereo not drawn)	> 100 µM	> 100 µM	> 100 µM	> 100 µM	> 100 µM	> 100 µM	> 100 µM	> 100 µM	–	–	–	–	–	–	–	–	–	–	–
CCCCOC(=O)N1CCN(/[N+]([O-])=N/Oc2ccc([N+](=O)[O-])cc2[N+](=O)[O-])CC1	41.3 µM	> 100 µM	5.99 µM	–	6.44 µM	–	21.8 µM	> 100 µM	2630 nM	–	–	2170 nM	4.55 µM	3.84 µM	2910 nM	3.31 µM	8.57 µM	6.85 µM	–
COc1cc(OC)c(C/C=C/c2ccccc2)cc1O	29.6 µM	27.2 µM	50.7 µM	–	29.9 µM	26.5 µM	41.8 µM	52.2 µM	–	–	23.7 µM	–	–	–	–	–	–	–	–
CC1CCC/C1=C(/I)C(=O)c1ccccc1 (stereo not drawn)	> 100 µM	> 100 µM	> 100 µM	> 100 µM	> 100 µM	–	> 100 µM	70.4 µM	–	–	> 100 µM	–	–	–	–	–	–	–	–
Cc1nc(Nc2ccccc2)sc1C(=O)CC(=O)C(=O)Nc1c(C(C)C)cccc1C(C)C	> 100 µM	> 100 µM	> 100 µM	> 100 µM	> 100 µM	> 100 µM	> 100 µM	> 100 µM	–	–	–	–	–	–	–	–	–	–	–
CC1=NN(C(=O)c2ccccc2O)C(=O)/C1=C/c1ccc(O)cc1	–	17.4 µM	> 94.6 µM	> 100 µM	5.03 µM	–	–	> 41.1 µM	–	–	> 100 µM	–	–	–	–	–	> 100 µM	–	–
CCOC(=O)/C(C1=NCCN1)=C(\O)c1ccccc1	> 100 µM	> 100 µM	> 100 µM	–	> 100 µM	–	> 100 µM	> 100 µM	–	–	–	–	–	–	–	–	–	–	–
CCOc1cc2c(C(=O)CC)c(O)ccc2o1	> 100 µM	> 100 µM	> 100 µM	> 93.6 µM	> 100 µM	> 100 µM	> 100 µM	23 µM	–	–	–	–	–	–	–	–	–	–	–
CC(=O)[CH-]C(=O)c1ccccc1.CC(=O)[CH-]C(=O)c1ccccc1.CC[O-].CC[O-].[Hf+4]	> 100 µM	> 100 µM	> 100 µM	> 100 µM	> 100 µM	> 100 µM	> 100 µM	> 100 µM	> 100000 nM	> 100 µM	–	> 100000 nM	> 100 µM	> 100 µM	> 100000 nM	–	–	> 100 µM	36.8 µM
